{
  "source": "patent US20090252814A1",
  "about": "“USE OF XENON FOR ORGAN PROTECTION” (priority 2005, published 2009)",
  "key": {"NMDA receptor": {"system": "NMDA receptor", "details": "80% xenon, cultured hippocampal neurons; cited from earlier work"}, "PHD2": {"system": "PHD2", "test": "PHD2 expression in adult mice brains (western blot)", "format": "in vivo, C57BL/6J mice", "details": "75% xenon and 25% oxygen 2 h, harvested 0-48 h after", "description": "Studies were performed on 8- to 12-wk-old C57BL/6J mice (Jackson Labs, Bar Harbor, Me.) that were fed a standard laboratory diet. All procedures were approved by the Home Office.\nThe mice were exposed to 75% xenon and 25% oxygen for two hours. The xenon gas was administered to the mice by inhalation. The brains of said adult mice were then harvested as described below between 0-48 hours after exposure to the xenon gas.\nThe tissues were homogenised and western blots of adult mice brain samples were carried out as described in Example 1.\nThe primary antibody was monoclonal mouse anti-PHD2 antibody."}, "erythropoietin (EPO) [1]": {"system": "erythropoietin (EPO)", "test": "EPO RNA expression in neonatal rat brain (RT-PCR)", "format": "in vivo, Sprague Dawley rats", "details": "neonatal rat brains, 75% xenon 2 h, harvested 0-24 h after", "description": "Neonatal rats (7 days) Sprague Dawley rats were used. All procedures were approved by the Home Office.\nC=Rat hippocampal brain control stored in −80° C. 0=Rat hippocampal brain treated with xenon for 2 hrs, sacrificed immediately after and stored in −80° C. 2=Rat hippocampal brain treated with xenon for 2 hrs, sacrificed 2 hrs later and stored in −80° C. 4=Rat hippocampal brain treated with xenon for 2 hrs, sacrificed 4 hrs later and stored in −80° C. 8=Rat hippocampal brain treated with xenon for 2 hrs, sacrificed 8 hrs later and stored in −80° C. 24=Rat hippocampal brain treated with xenon for 2 hrs, sacrificed 24 hrs later and stored in −80° C. P2=Rat hippocampal brain positive control with ischaemia injury for 45 mins, harvested after 24 hrs, stored in −80° C.\nTotal RNA was extracted from neonatal rat brains.\nReverse transcription of the RNA in order to obtain the first-strand cDNA was carried out using techniques well known in the art. […]\nThe resulting PCR amplification products were electrophoresed on a 1×TAE agarose gel in 1×TAE buffer and visualised using Fluor-S MultiImager BIORAD. […] As the level of fluorescence is approximately proportional to the amount of intercalated ethidium bromide, the abundance of amplified DNA within samples can be compared; in other words, the level of expression of a gene of interest can be determined. […]"}, "erythropoietin (EPO) [2]": {"system": "erythropoietin (EPO)", "test": "EPO protein expression in neonatal rat brain (western blot)", "format": "in vivo, Sprague Dawley rats", "details": "neonatal rat brains, 75% xenon 2 h, harvested 0-24 h after", "description": "Sprague Dawley, 7 day neonatal rats were used. All procedures were approved by the Home Office.\nThe neonatal rats were exposed to 75% xenon for two hours. The gas was administered by gas inhalation. The brains of said rats were then harvested as described below between 0-24 hours after exposure to the xenon gas.\nThe tissues were homogenised and western blots of neonatal rat brain samples were carried out as described in Example 1.\nThe primary antibodies were anti-α-tubulin antibody, and monoclonal mouse anti-erythropoietin antibody."}, "HIF-1α": {"system": "HIF-1α", "test": "HIF-1α expression in neonatal rat brain after xenon (immunohistochemistry and western blot)", "format": "in vivo, Sprague Dawley rats", "description": "Studies were performed on Sprague Dawley, 7 day old rats. All procedures were approved by the Home Office.\nThe rats were exposed to 75% xenon for two hours. The xenon gas was administered to the rats by inhalation. The brains of said rats were then harvested, as described below, between 0-24 hours after exposure to the xenon gas.\nParaffin sections (4 μm) were dewaxed in xylene, rehydrated in a series of ethanol washes, and placed in distilled water before staining procedures. Slides were coated with 3-aminopropyl-tri-ethoxysylane.\nFor detection of HIF isoforms, monoclonal mouse anti-human HIF-1α antibody (67; Novus Biologicals, Littleton, Colo.) and polyclonal rabbit anti-mouse HIF-2α antibodies (PM8 and PM9, obtained from two different rabbits immunised with a peptide containing amino acids 337 to 439 of mouse HIF-2) were used. PM8 and PM9 were provided by Prof. P H Maxwell, Renal Section, Imperial College London, Hammersmith Campus, Du Cane Road, London, W12 ONN. Specific staining of each HIF-isoform was confirmed in immunoblots by using in vitro transcribed and translated mouse HIF-1 and HIF-2 (TnT T7; Promega, Madison, Wis.) and homogenates of rat endothelial cells.\nFor immunohistochemical analyses, antibody 67 was used at a dilution of 1:6000 and antibodies PM8 and PM9 were used at dilutions of 1:3000.\nDetection of bound antibodies was performed by using biotinylated secondary anti-mouse or anti-rabbit antibodies and a catalysed signal amplification system (Dako, Hamburg, Germany) based on the streptavidin-biotin-peroxidase reaction, according to the instructions provided by the manufacturer. Antigen retrieval was performed for 90 seconds in preheated Dako target retrieval solution, using a pressure cooker. All incubations were performed in a humidified chamber. Between incubations, specimens were washed two to four times in buffer (50 mM Tris-HCl, 300 mM NaCl, 0.1% Tween-20, pH 7.6). […]"}},
  "data": [
    {"smiles": "[Xe]", "note": "[xenon]", "values": [
      {"measurement": "reduction of NMDA-activated currents", "setting": "NMDA receptor", "result": "up to 60%"},
      {"measurement": "expression of PHD2", "setting": "PHD2", "result": "time-dependent reduction"},
      {"measurement": "EPO expression (RNA)", "setting": "erythropoietin (EPO) [1]", "result": "time-dependent increase"},
      {"measurement": "expression of EPO protein", "setting": "erythropoietin (EPO) [2]", "result": "time-dependent increase"},
      {"measurement": "expression of HIF-1α and HIF-1β in pyramidal cells in the hippocampus", "setting": "HIF-1α; 6 hours after exposure to 75% xenon, immunohistochemistry", "result": "induces expression"},
      {"measurement": "HIF-1α positive cells in cortex", "setting": "HIF-1α; 6 hrs after 2 h exposure to 75% xenon, immunohistochemistry", "result": "clearly detected"},
      {"measurement": "HIF-1α expression in the brain", "setting": "HIF-1α; 7 day old rats, 75% xenon 2 h, brains harvested 0-24 h after, western blot", "result": "time-dependent increase"}
    ]}
  ]
}
